Reference: a melting point compilation (Tetko et al.)

| Compound | melting point [°C] |
| --- | --- |
| O=C1COc2c(Cl)cccc2N1 | 201 to 203 |
| CCOC(=O)c1sc(SC)nc1N | 80 to 82 |
| CCSc1ccc(CC(=O)O)cc1 | 74 to 76 |
| O=C(O)c1ccc2[nH]c(-c3ccc(Cl)cc3)nc2c1 | 319 to 321 |
| O=C(NCCc1cccs1)C1Cc2ccccc2CN1 (configuration not stated) | 86 to 88 |
| COc1cc(C)cc2c(C)c(C(C)N)oc12 (configuration not stated) | 56 to 58 |
| NCCNC(=O)c1ccc(O)cc1 | 191 to 193 |
| CC(C)(C)OC(=O)N1CCC(N2CCCC2C(=O)O)CC1 (configuration not stated) | 169 to 171 |
| O=C(CCl)NCc1cnn(-c2ccccc2)c1 | 110 to 112 |
| O=[N+]([O-])c1ccc(NCc2ccccn2)cc1 | 119 to 121 |
| Cc1ccc2c(C3=CCNCC3)c[nH]c2c1 | 178 to 180 |
| O=C(O)c1cc(S(=O)(=O)N2CCOCC2)ccc1Cl | 183 to 185 |
| Nc1ccc(-c2cn3c(n2)CCCC3)cc1 | 209 to 211 |
| O=C(O)C1(c2cccc(Br)c2)CCCC1 | 158 to 160 |
| Nc1ccc(Cl)c(CN2CCCCC2)c1 | 125 to 127 |
| CNCCCc1cc(-c2ccc(F)cc2)no1 | 146 to 148 |
| CSC(C(=O)O)c1ccccc1 (configuration not stated) | 75 to 77 |
| O=C(O)C1CCCN1C(=O)c1ccc2[nH]nnc2c1 (configuration not stated) | 223 to 225 |
| NCCCNC(=O)c1cccc(O)c1 | 136 to 138 |

| Compound | melting point [°C] |
| --- | --- |
| Cn1ccnc1-c1cc(N)on1 | 178 to 180 |
| Cc1ccc(Oc2ccc(N)cn2)cc1C | 56 to 58 |
| CC(C)c1ccc(NCC(=O)N2CCCC2)cc1 | 127 to 129 |
| Cc1cc(C(=O)C(C)Cl)c(C)n1-c1ccc(Cl)cc1 (configuration not stated) | 107 to 111 |
| ClCc1cnn(-c2ccccc2)c1 | 65 to 69 |
| NCC(O)COc1cccc(F)c1 (configuration not stated) | 84 to 86 |
| CCN(Cc1ccccc1)S(=O)(=O)c1cc(C(=O)O)ccc1OC | 102 to 105 |
| COc1ccc(N(C(C)=O)c2nc(C=O)cs2)cc1 | 180 to 183 |
| O=C(Nc1ccccn1)OCC(F)(F)F | 150 to 152 |
| COC(=O)C1COc2ccccc2O1 (configuration not stated) | 37 to 39 |
| O=C(O)C1(S(=O)(=O)c2ccc(Cl)cc2)CCCC1 | 83 to 85 |
| Cc1ccc(NC(=O)NC(=O)CCl)c(C)c1 | 159 to 161 |
| NS(=O)(=O)c1cc(C(=O)O)ccc1Br | 275 to 277 |
| CC(C)(C)OC(=O)NCc1cccc(C(N)=S)c1 | 105 to 107 |
| NC(=O)c1ccc(N)cc1N1CCCCC1 | 142 to 144 |
| Nc1cc(S(=O)(=O)N2CCOCC2)ccc1Cl | 177 to 179 |
| Cn1c(CCl)nc2c1c(=O)[nH]c(=O)n2C | 269 to 271 |
| Cc1ccc2c(c1)CCC2=O | 69 to 73 |
| Cc1nccn1-c1ccc(CN)cn1 | 45 to 47 |

| Compound | melting point [°C] |
| --- | --- |
| N#CCC(=O)c1c[nH]c2cc(F)ccc12 | 265 to 267 |
| CC(C)(C)c1noc(N)n1 | 192 to 194 |
| N#CC1CSCCN1 (configuration not stated) | 81 to 83 |
| Nc1ccc(OCc2ccncc2)cc1 | 129 to 131 |
| Cc1cc(S(=O)(=O)Cl)cc(C(=O)O)c1Cl | 169 to 171 |
| O=C(O)c1cc(S(=O)(=O)N2CCCC2)ccc1Br | 216 to 218 |
| c1ccc2c(-c3nc4ccccc4[nH]3)cccc2c1 | 264 to 266 |
| CC(O)C(NC(=O)C1CC1C)C(=O)O (configuration not stated) | 138 to 140 |
| NC(=O)COc1ccc(C=O)cc1 | 134 to 136 |
| N#CCN1CCOCC1 | 62 to 64 |
| CN(C(=O)c1ccccc1O)C1CCCC1 | 65 to 74 |
| O=C(O)c1c2c(nc3ccccc13)C(=Cc1ccccc1Cl)CCC2 | 98 to 100 |
| N#CCc1ccccc1CC(=O)O | 99 to 101 |
| O=C(O)C1=CCCO1 | 98 to 100 |
| Nc1ncc(-c2cccc(F)c2)s1 | 168 to 170 |
| O=C(O)c1cnc(C2CC2)s1 | 187 to 189 |
| CC(C)(C)OC(=O)Nc1ccc(CC(=O)N2CCNCC2)cc1 | 169 to 171 |
| CCOc1ccc(Nc2nnc(S)s2)cc1 | 170 to 172 |
| Nc1nonc1C(=O)N1CCCCC1 | 86 to 88 |
